Reference: ChEMBL document CHEMBL4507263, “Data for DCP probe BAY-474” (2021)
Calls of active or inactive are those of the source. No cut-off for these calls is given here.

Tests used:
[1] = molecular target: Protein-tyrosine kinase 2-beta (Homo sapiens) (UniProt Q14289); experiment: Pyk2 (h) Millipore kinase activity assay; conditions: Compound concentration 1.0 uM
[2] = molecular target: Serine/threonine-protein kinase DCLK2 (Homo sapiens) (UniProt Q8N568); experiment: DCAMKL2 (h) Millipore kinase activity assay; conditions: Compound concentration 1.0 uM
Homo sapiens = species on record: Homo sapiens; experiment: Inhibition of Nicotinic Acetylcholine at compound concentration of 10.0 uM in the Eurofins-Panlabs radioligand binding assay (Eurofins_assay_258590); type: protein-complex assay; conditions: Compound concentration 10.0 uM
[3] = molecular target: Vascular endothelial growth factor receptor 3 (Homo sapiens) (UniProt P35916); experiment: Flt4 (h) Millipore kinase activity assay; conditions: Compound concentration 1.0 uM
[4] = molecular target: Adenosine receptor A1 (Homo sapiens) (UniProt P30542); conditions: Compound concentration 10.0 uM
[5] = molecular target: RAC-gamma serine/threonine-protein kinase (Homo sapiens) (UniProt Q9Y243); experiment: PKBgamma (h) Millipore kinase activity assay; conditions: Compound concentration 1.0 uM
[6] = molecular target: Serine/threonine-protein kinase TAO3 (Homo sapiens) (UniProt Q9H2K8); experiment: TAO3 (h) Millipore kinase activity assay; conditions: Compound concentration 1.0 uM
MKN-45 = experiment: Cell proliferation with […] cell line; type: functional; conditions: Homo sapiens
[7] = molecular target: Serine/threonine-protein kinase D1 (Homo sapiens) (UniProt Q15139); experiment: PKCmu (h) Millipore kinase activity assay; conditions: Compound concentration 1.0 uM
Hs746T = experiment: Cell proliferation with Hs746T cells; type: functional; conditions: Homo sapiens
[8] = molecular target: Delta-type opioid receptor (Homo sapiens) (UniProt P41143); conditions: Compound concentration 10.0 uM
[9] = molecular target: Serine/threonine-protein kinase PAK 4 (Homo sapiens) (UniProt O96013); experiment: PAK4 (h) Millipore kinase activity assay; conditions: Compound concentration 1.0 uM
[10] = molecular target: Insulin receptor (Homo sapiens) (UniProt P06213); experiment: IR (h) Millipore kinase activity assay; conditions: Compound concentration 1.0 uM
[11] = molecular target: Substance-P receptor (Homo sapiens) (UniProt P25103); experiment: Inhibition of Tachykinin NK1 at 10 µM in the Eurofins-Panlabs radioligand binding assay (Eurofins_assay_255520); design: ligand concentration 0.8 nM; conditions: Compound concentration 10.0 uM
[12] = molecular target: Mitogen-activated protein kinase 1 (Homo sapiens) (UniProt P28482); experiment: MAPK2( h) Millipore kinase activity assay; conditions: Compound concentration 1.0 uM
[13] = molecular target: SRSF protein kinase 1 (Homo sapiens) (UniProt Q96SB4); experiment: SRPK1 (h) Millipore kinase activity assay; conditions: Compound concentration 1.0 uM
[14] = molecular target: NUAK family SNF1-like kinase 1 (Homo sapiens) (UniProt O60285); experiment: ARK5 (h) Millipore kinase activity assay; conditions: Compound concentration 1.0 uM
[15] = molecular target: Transient receptor potential cation channel subfamily M member 6 (Homo sapiens) (UniProt Q9BX84); conditions: Compound concentration 1000.0 nM
[16] = molecular target: Ephrin type-B receptor 4 (Homo sapiens) (UniProt P54760); conditions: Compound concentration 1000.0 nM
[17] = molecular target: Tyrosine-protein kinase receptor Tie-1 (Homo sapiens) (UniProt P35590); conditions: Compound concentration 1000.0 nM
[18] = molecular target: Non-receptor tyrosine-protein kinase TYK2 (Homo sapiens) (UniProt P29597); conditions: Compound concentration 1000.0 nM
[19] = molecular target: Casein kinase I isoform alpha-like (Homo sapiens) (UniProt Q8N752); conditions: Compound concentration 1000.0 nM
[20] = molecular target: Cyclin-dependent kinase 8 (Homo sapiens) (UniProt P49336); conditions: Compound concentration 1000.0 nM
[21] = molecular target: Serine/threonine-protein kinase 16 (Homo sapiens) (UniProt O75716); conditions: Compound concentration 1000.0 nM
[22] = molecular target: Serine/threonine-protein kinase 35 (Homo sapiens) (UniProt Q8TDR2); conditions: Compound concentration 1000.0 nM
[23] = molecular target: Mitotic checkpoint serine/threonine-protein kinase BUB1 (Homo sapiens) (UniProt O43683); conditions: Compound concentration 1000.0 nM
[24] = molecular target: Cyclin-dependent kinase 2 homolog (Plasmodium falciparum (isolate 3D7)) (UniProt P61075); conditions: Compound concentration 1000.0 nM
[25] = molecular target: Serine/threonine-protein kinase DCLK2 (Homo sapiens) (UniProt Q8N568); conditions: Compound concentration 1000.0 nM
[26] = system: Tyrosine-protein kinase ABL1 (Homo sapiens), P00519 [F317I]; conditions: Compound concentration 1000.0 nM
[27] = molecular target: Peripheral plasma membrane protein CASK (Homo sapiens) (UniProt O14936); conditions: Compound concentration 1000.0 nM
[28] = molecular target: G protein-coupled receptor kinase 4 (Homo sapiens) (UniProt P32298); conditions: Compound concentration 1000.0 nM
[29] = molecular target: Misshapen-like kinase 1 (Homo sapiens) (UniProt Q8N4C8); conditions: Compound concentration 1000.0 nM
[30] = system: Phosphatidylinositol 4,5-bisphosphate 3-kinase catalytic subunit alpha isoform (Homo sapiens), P42336 [M1043I]; conditions: Compound concentration 1000.0 nM
[31] = molecular target: Cyclin-dependent kinase 15 (Homo sapiens) (UniProt Q96Q40); conditions: Compound concentration 1000.0 nM
[32] = molecular target: RAC-gamma serine/threonine-protein kinase (Homo sapiens) (UniProt Q9Y243); conditions: Compound concentration 1000.0 nM
[33] = molecular target: Serine/threonine-protein kinase TAO2 (Homo sapiens) (UniProt Q9UL54); conditions: Compound concentration 1000.0 nM
[34] = molecular target: Atypical kinase COQ8A, mitochondrial (Homo sapiens) (UniProt Q8NI60); conditions: Compound concentration 1000.0 nM
[35] = molecular target: Fibroblast growth factor receptor 1 (Homo sapiens) (UniProt P11362); conditions: Compound concentration 1000.0 nM
[36] = molecular target: Serine/threonine-protein kinase Nek2 (Homo sapiens) (UniProt P51955); conditions: Compound concentration 1000.0 nM
[37] = molecular target: Phosphorylase b kinase gamma catalytic chain, skeletal muscle/heart isoform (Homo sapiens) (UniProt Q16816); conditions: Compound concentration 1000.0 nM
[38] = system: Mast/stem cell growth factor receptor Kit (Homo sapiens), P10721 [A829P]; conditions: Compound concentration 1000.0 nM
[39] = molecular target: Mitogen-activated protein kinase 4 (Homo sapiens) (UniProt P31152); conditions: Compound concentration 1000.0 nM
[40] = molecular target: Non-receptor tyrosine-protein kinase TYK2 (Homo sapiens) (UniProt P29597); conditions: Compound concentration 1000.0 nM; remark: listed apart in the source
[41] = molecular target: Tyrosine-protein kinase ITK/TSK (Homo sapiens) (UniProt Q08881); conditions: Compound concentration 1000.0 nM
[42] = system: Mast/stem cell growth factor receptor Kit (Homo sapiens), P10721 [V559D,T670I]; conditions: Compound concentration 1000.0 nM
[43] = molecular target: Mitogen-activated protein kinase kinase kinase 5 (Homo sapiens) (UniProt Q99683); conditions: Compound concentration 1000.0 nM

Sequence of Serine/threonine-protein kinase DCLK2 (Homo sapiens) (Q8N568 whole entry): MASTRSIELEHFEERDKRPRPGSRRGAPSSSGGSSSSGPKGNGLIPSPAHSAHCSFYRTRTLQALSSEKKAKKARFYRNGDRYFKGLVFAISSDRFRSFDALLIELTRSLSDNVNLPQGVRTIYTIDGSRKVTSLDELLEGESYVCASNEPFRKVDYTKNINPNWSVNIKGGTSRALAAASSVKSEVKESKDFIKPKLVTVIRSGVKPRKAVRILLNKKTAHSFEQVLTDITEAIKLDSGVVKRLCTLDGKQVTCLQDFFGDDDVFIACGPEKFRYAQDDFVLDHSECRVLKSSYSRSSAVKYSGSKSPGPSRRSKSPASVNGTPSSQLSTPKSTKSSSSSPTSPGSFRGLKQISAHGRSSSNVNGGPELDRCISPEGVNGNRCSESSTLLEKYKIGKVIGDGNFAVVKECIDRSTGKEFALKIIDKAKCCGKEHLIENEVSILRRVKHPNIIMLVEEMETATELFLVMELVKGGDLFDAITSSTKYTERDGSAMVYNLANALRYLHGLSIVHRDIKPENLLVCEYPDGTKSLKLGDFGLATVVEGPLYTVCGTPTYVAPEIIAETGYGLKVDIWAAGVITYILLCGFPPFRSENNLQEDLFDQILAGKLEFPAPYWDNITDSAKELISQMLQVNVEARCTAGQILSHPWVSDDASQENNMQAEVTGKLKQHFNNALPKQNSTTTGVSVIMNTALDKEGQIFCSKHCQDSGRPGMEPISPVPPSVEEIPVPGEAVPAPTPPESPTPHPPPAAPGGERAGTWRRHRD
Sequence of RAC-gamma serine/threonine-protein kinase (Homo sapiens) (Q9Y243 whole entry): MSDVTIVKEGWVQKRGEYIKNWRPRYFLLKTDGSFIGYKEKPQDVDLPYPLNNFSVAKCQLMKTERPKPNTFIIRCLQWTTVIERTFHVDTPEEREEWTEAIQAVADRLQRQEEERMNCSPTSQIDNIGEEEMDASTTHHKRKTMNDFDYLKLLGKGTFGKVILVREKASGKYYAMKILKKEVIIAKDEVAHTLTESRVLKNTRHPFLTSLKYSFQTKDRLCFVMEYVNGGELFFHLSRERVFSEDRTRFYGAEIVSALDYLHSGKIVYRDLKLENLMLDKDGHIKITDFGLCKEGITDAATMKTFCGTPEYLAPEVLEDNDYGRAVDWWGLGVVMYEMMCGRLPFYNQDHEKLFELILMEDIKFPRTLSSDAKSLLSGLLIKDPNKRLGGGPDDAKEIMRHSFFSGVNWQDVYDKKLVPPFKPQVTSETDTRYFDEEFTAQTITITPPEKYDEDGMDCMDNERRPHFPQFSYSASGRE
Sequence of Non-receptor tyrosine-protein kinase TYK2 (Homo sapiens) (P29597 whole entry, canonical isoform): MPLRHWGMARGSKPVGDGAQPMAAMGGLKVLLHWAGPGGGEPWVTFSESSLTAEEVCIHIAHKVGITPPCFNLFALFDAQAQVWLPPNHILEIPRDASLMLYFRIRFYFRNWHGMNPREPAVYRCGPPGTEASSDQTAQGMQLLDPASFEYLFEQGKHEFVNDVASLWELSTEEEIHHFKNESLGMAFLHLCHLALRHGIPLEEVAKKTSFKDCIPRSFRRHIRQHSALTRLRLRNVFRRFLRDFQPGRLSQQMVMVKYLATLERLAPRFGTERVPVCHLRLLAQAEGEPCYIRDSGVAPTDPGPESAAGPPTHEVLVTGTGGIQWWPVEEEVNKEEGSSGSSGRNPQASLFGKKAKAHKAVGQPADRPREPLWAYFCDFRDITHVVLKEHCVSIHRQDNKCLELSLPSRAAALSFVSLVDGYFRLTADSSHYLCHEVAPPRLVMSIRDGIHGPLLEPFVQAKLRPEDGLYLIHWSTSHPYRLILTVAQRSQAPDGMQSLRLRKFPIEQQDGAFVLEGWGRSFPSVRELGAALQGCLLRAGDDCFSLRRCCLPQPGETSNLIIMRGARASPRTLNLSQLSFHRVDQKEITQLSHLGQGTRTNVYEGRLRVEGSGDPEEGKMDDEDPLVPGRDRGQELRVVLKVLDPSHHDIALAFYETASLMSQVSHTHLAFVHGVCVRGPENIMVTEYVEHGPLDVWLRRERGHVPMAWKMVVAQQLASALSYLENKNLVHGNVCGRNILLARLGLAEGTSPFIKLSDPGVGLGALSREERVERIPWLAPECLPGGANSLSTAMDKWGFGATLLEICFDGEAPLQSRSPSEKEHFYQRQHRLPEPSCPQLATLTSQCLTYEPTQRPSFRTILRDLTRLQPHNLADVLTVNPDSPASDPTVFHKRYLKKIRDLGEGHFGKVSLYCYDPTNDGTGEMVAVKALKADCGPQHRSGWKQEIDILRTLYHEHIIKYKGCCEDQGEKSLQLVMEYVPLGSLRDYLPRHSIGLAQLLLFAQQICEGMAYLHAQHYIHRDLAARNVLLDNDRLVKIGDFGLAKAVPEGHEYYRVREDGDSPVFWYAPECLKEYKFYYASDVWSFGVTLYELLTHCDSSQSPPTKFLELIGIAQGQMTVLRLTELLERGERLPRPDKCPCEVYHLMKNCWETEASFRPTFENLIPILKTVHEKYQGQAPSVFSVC
Sequence of Misshapen-like kinase 1 (Homo sapiens) (Q8N4C8 whole entry, looked up, canonical isoform): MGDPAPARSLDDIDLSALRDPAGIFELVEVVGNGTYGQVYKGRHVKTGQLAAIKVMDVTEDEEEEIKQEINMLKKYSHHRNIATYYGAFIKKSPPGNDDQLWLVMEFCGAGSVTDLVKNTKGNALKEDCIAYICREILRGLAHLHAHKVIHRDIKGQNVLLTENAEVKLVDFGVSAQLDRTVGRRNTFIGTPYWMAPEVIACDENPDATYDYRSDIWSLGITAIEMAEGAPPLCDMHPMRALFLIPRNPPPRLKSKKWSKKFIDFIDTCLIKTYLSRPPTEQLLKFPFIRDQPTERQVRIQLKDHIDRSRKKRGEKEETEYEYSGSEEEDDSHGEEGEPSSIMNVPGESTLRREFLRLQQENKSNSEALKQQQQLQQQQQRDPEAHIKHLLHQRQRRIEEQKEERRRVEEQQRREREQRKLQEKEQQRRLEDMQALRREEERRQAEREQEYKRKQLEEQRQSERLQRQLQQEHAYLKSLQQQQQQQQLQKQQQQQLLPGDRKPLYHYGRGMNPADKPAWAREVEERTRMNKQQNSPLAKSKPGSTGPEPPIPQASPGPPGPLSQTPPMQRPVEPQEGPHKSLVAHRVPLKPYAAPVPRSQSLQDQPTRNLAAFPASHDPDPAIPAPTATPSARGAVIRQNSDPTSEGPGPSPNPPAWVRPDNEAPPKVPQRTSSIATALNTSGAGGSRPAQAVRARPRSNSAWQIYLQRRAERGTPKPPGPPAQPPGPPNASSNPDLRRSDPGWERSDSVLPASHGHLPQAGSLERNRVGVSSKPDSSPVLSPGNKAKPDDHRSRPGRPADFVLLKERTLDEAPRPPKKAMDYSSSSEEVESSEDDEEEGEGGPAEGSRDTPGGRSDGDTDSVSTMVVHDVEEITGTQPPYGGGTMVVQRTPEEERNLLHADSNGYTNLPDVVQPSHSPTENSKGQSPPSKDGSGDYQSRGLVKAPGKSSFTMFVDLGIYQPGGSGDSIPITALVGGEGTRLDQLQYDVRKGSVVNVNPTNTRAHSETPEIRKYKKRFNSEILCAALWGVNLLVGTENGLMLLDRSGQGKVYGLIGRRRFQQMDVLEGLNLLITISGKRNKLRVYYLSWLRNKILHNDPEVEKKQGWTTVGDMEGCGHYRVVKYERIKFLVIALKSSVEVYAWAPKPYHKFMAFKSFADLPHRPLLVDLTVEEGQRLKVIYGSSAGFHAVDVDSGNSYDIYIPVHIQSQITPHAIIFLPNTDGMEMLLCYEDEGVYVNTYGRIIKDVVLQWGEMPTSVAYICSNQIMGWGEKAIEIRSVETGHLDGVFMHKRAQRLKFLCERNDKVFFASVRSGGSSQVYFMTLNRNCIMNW
Sequence of Vascular endothelial growth factor receptor 3 (Homo sapiens) (P35916 whole entry): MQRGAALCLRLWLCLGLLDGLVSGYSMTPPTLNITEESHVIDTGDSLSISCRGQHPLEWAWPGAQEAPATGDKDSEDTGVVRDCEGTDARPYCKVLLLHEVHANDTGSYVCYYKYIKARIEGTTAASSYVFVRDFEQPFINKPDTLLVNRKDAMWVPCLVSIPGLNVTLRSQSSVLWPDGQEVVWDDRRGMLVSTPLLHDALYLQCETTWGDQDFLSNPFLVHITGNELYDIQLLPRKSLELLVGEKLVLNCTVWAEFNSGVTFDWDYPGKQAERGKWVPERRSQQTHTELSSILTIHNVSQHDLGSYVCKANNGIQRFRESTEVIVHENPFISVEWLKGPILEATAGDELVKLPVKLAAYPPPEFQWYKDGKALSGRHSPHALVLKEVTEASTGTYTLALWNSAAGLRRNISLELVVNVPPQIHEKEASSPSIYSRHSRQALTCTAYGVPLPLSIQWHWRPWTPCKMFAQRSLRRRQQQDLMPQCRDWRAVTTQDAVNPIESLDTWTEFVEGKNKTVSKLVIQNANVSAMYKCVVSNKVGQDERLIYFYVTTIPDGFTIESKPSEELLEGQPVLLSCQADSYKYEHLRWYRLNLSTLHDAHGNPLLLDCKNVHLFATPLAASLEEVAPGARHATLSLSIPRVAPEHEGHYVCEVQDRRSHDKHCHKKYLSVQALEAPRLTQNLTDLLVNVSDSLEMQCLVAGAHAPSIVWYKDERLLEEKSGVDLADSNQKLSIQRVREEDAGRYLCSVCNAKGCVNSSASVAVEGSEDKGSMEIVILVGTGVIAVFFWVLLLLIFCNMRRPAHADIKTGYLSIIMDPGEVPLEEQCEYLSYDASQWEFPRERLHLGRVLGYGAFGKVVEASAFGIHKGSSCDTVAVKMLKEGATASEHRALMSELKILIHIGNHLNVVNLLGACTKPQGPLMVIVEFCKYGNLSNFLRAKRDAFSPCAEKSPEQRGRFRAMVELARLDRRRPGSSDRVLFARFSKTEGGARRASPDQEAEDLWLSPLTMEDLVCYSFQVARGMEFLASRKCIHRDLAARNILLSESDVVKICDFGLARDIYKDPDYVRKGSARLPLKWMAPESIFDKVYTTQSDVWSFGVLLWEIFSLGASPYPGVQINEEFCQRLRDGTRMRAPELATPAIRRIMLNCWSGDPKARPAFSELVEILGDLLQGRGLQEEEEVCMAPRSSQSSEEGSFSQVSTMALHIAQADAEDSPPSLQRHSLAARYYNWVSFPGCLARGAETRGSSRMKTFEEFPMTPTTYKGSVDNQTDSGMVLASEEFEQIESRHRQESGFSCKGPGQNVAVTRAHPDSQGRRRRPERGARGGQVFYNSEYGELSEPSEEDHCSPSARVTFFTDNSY

## CC1=C(C#N)C(c2ccc3[nH]nc(C)c3c2)C(C#N)=C(C)N1 [BAY-474]
[1]
  inhibition: 17%
[2]
  inhibition: -5%
Homo sapiens
  inhibition: -1%
[3]
  inhibition: 26%
[4]
  inhibition: -2%
[5]
  inhibition: -4%
[6]
  inhibition: -8%
MKN-45
  IC90: 0.024 µM (active)
[7]
  inhibition: 15%
Hs746T
  IC90: 0.056 µM (active)
[8]
  inhibition: 9%
[9]
  inhibition: 3%
[10]
  inhibition: -9%
[11]
  inhibition: -4%
[12]
  inhibition: 4%
[13]
  inhibition: 11%
[14]
  inhibition: 22%

## CC1=C(C#N)[C@@H](c2ccc3[nH]nc(C)c3c2)C(C#N)=C(c2ccc(Cl)cc2)N1 [BAY-827]
[15]
  residual activity: 100%
[16]
  residual activity: 100%
[17]
  residual activity: 76.4%
[18]
  residual activity: 73.1%
[19]
  residual activity: 100%
[20]
  residual activity: 93.2%
[21]
  residual activity: 100%
[22]
  residual activity: 100%
[23]
  residual activity: 100%
[24]
  residual activity: 92.5%
[25]
  residual activity: 97.9%
[26]
  residual activity: 100%
[27]
  residual activity: 66.2%
[28]
  residual activity: 100%
[29]
  residual activity: 77%
[30]
  residual activity: 25.2%
[31]
  residual activity: 75.4%
[32]
  residual activity: 82.8%
[33]
  residual activity: 100%
[34]
  residual activity: 97.8%
[35]
  residual activity: 86.6%
[36]
  residual activity: 100%
[37]
  residual activity: 100%
[38]
  residual activity: 100%
[39]
  residual activity: 89.6%
[40]
  residual activity: 100%
[41]
  residual activity: 97.2%
[42]
  residual activity: 84.4%
[43]
  residual activity: 100%
